Literature values as cited in patent US9763983B2, “Natural killer cells from placenta” (ANTHROGENESIS CORPORATION, priority 2013, dated 2017).

Conditions: disclosed in US 2005/0096351 A1; for hygroscopicity: polymorphic form

| SMILES | stability / interconversion of polymorphic form | hygroscopicity |
| --- | --- | --- |
| Nc1cccc2c1CN(C1CCC(=O)NC1=O)C2=O (stereo not shown) [Form A, 3-(4-amino-1-oxo-1,3 dihydro-isoindol-2-yl)-piperidene-2,6-dione] | most thermodynamically stable anhydrous polymorph | weakly or not hygroscopic |
| Nc1cccc2c1CN(C1CCC(=O)NC1=O)C2=O (stereo not shown) [Form B, 3-(4-amino-1-oxo-1,3 dihydro-isoindol-2-yl)-piperidene-2,6-dione] | converts to Form E in aqueous solvent systems | – |
| Nc1cccc2c1CN(C1CCC(=O)NC1=O)C2=O (stereo not shown) [Form C, 3-(4-amino-1-oxo-1,3 dihydro-isoindol-2-yl)-piperidene-2,6-dione] | can convert to Form B at higher relative humidities | not hygroscopic below about 85% RH |
| Nc1cccc2c1CN(C1CCC(=O)NC1=O)C2=O (stereo not shown) [Form D, 3-(4-amino-1-oxo-1,3 dihydro-isoindol-2-yl)-piperidene-2,6-dione] | convert to Form B when stressed at higher relative humidities | either weakly or not hygroscopic |
